The values below come from patent US11814367B2, “Inhibitors of glycogen synthase 1 (GYS1) and methods of use thereof” (Maze Therapeutics, Inc., priority 2021, dated 2023).

Assay [1] has as its target hGYS2 enzyme (recombinant hGYS2/GN1 protein) (Homo sapiens (Human), UniProt P54840). As to the kind of experiment: GYS2 coupled enzyme assay (PK/LDH). The assay is classed as biochemical. As to conditions: geometric mean of at least 2 assay runs on separate days, read-out: Avg_IC50. In a few lines:
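hGYS2/GN1 200 nM; UDP-Glc 2 mM; glycogen 0.2%; G6P 2 mM; PEP 2 mM, NADH 0.6 mM, PK/LDH 20 U/mL. 50 mM Tris pH 7.5, MgCl2, KCl, BSA, TCEP, 2.5% DMSO. Kinetic A340, 10 min. IC50 = geomean of ≥2 runs.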

Assay [2] has as its target hGYS1 enzyme (recombinant hGYS1/GN1 protein) (Homo sapiens (Human), UniProt P13807). As to the kind of experiment: GYS1 coupled enzyme assay (PK/LDH). In kind it is biochemical. Conditions: hGYS1/GN1 50 nM, UDP-Glucose 0.8 mM, G6P 1 mM; geometric mean of at least 2 runs.
Assay [3] relates to hGYS1 enzyme / glycogen synthesis in HeLa cells. Description: GYS1 cell based assay (glycogen synthesis, Glucose-glo). Set-up: species or system human. Conditions: 24 h incubation, 20 mM glucose, geometric mean of at least 2 runs. In short, it runs like this:
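HeLa cells starved 24 h in medium containing only 1× Glutamax were plated onto compound in medium with 20 mM glucose (1% DMSO final) for 24 h, 37 °C, 5% CO2. Acid lysates were Tris-quenched, glucoamylase-digested (pH 5.3, 1 h, 37 °C) and read by Glucose-glo luminescence. IC50 came from Hill fits, as geometric mean of ≥2 runs.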

Chain of hGYS2 enzyme (recombinant hGYS2/GN1 protein) (P54840 whole entry): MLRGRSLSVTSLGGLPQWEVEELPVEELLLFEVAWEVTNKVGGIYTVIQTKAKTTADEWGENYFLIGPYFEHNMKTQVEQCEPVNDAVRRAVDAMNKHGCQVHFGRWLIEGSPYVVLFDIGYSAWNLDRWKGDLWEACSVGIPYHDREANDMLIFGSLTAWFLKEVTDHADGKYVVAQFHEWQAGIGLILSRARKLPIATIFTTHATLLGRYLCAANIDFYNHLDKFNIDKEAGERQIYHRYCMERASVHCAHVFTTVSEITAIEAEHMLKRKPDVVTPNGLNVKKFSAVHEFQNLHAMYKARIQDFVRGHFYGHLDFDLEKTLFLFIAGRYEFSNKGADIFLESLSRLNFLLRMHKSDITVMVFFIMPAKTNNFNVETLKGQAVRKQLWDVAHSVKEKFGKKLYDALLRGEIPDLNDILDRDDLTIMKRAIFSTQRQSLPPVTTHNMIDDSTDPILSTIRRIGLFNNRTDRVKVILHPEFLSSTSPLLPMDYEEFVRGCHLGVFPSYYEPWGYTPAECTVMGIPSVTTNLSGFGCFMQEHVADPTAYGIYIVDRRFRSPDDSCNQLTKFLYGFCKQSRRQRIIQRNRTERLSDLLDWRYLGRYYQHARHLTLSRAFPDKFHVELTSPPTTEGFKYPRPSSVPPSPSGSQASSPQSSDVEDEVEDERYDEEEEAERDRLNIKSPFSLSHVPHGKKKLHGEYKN
Chain of hGYS2 enzyme (recombinant hGYS2/GN1 protein) (P46976 whole entry partner): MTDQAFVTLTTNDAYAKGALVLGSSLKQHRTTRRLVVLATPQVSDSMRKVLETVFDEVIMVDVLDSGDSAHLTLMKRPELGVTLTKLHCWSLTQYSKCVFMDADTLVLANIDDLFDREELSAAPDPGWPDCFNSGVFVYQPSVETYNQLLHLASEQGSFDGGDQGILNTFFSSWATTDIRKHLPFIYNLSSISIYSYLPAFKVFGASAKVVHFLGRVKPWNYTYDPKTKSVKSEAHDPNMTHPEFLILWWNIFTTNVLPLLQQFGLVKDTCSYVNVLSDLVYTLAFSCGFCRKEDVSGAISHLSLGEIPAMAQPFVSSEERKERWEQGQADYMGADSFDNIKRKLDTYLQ
Chain of hGYS1 enzyme (recombinant hGYS1/GN1 protein) (P13807 whole entry): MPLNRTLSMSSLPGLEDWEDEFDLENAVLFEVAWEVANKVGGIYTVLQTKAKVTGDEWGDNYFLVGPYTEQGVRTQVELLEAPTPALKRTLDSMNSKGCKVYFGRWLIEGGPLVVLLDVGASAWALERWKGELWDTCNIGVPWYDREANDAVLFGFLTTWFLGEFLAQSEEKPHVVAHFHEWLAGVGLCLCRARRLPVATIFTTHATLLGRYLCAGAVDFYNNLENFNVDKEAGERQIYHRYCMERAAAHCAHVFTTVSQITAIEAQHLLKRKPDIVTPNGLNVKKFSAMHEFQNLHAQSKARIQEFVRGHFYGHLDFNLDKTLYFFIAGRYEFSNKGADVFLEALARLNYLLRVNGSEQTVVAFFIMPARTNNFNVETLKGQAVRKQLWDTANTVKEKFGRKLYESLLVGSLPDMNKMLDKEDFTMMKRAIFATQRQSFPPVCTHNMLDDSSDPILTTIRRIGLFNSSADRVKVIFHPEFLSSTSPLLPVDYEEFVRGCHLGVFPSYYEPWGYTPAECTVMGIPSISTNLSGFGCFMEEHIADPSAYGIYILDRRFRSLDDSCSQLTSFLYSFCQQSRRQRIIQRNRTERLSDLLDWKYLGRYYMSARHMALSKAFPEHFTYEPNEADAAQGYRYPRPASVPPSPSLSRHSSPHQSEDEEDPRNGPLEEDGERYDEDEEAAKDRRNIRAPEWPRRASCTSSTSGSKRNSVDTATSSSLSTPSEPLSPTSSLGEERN
Chain of hGYS1 enzyme (recombinant hGYS1/GN1 protein) (P46976 whole entry partner): as the sequence (P46976 whole entry partner) above

As for `CC(C(=O)N1C[C@H](F)C[C@H]1C(=O)N[C@@H](c1ccccc1)c1ccc(C2(C)CC2)c(F)n1)n1cnc2ccccc21` (single isomer, unassigned) [Compound 587, (2S,4R)-1-((R) or (S)-2-(1H-benzo[d]imidazol-1-yl)propanoyl)-4-fluoro-N—((S)-(6-fluoro-5-(1-methylcyclopropyl)pyridin-2-yl)(phenyl)methyl)pyrrolidine-2-carboxamide], the IC50 in assay [1] is above 100000 nM; in assay [2] it was 109 nM; in assay [3], 2390 nM.
On to `Cc1cc(C(NC(=O)[C@@H]2C[C@@H](F)CN2C(=O)Cc2cnn[nH]2)c2ccccc2)ncc1C(C)C` (single isomer, unassigned) [Compound 604, (2S,4R)-4-fluoro-N-[(S) or (R)-[4-methyl-5-(propan-2-yl)pyridin-2-yl](phenyl)methyl]-1-[2-(1H-1,2,3-triazol-5-yl)acetyl]pyrrolidine-2-carboxamide], for which the IC50 in assay [1] was above 100000 nM; in assay [2], 176 nM; in assay [3] (Homo sapiens, HeLa, 24 h), 1590 nM.
Regarding `CC(C)c1cnc(C(NC(=O)[C@@H]2C[C@@H](F)CN2C(=O)Cc2cnn[nH]2)c2ccccc2)cc1F` (single isomer, unassigned) [Compound 605, (2S,4R)-4-fluoro-N-[(S) or (R)-[4-fluoro-5-(propan-2-yl)pyridin-2-yl] (phenyl)methyl]-1-[2-(1H-1,2,3-triazol-5-yl)acetyl]pyrrolidine-2-carboxamide], the IC50 in assay [1] is above 100000 nM; in assay [2] it was 168 nM; in assay [3] (Homo sapiens, HeLa, 24 h), 2130 nM.
With `Cc1nc(C(NC(=O)[C@@H]2C[C@@H](F)CN2C(=O)Cc2cnn[nH]2)c2ccccc2)ccc1C(C)C` (single isomer, unassigned) [Compound 607, (2S,4R)-4-fluoro-N-[(S) or (R)-[6-methyl-5-(propan-2-yl)pyridin-2-yl](phenyl)methyl]-1-[2-(1H-1,2,3-triazol-5-yl)acetyl]pyrrolidine-2-carboxamide], the IC50 is above 100000 nM in assay [1]; 333 nM in assay [2]; 3290 nM in assay [3] (Homo sapiens, HeLa, 24 h).
Consider `Cc1nc(C(NC(=O)[C@@H]2C[C@@H](F)CN2C(=O)Cc2nnc(C(F)F)o2)c2ccccc2)ccc1C(C)C` (single isomer, unassigned) [Compound 609, (2S,4R)-1-{2-[5-(difluoromethyl)-1,3,4-oxadiazol-2-yl]acetyl}-4-fluoro-N-[(S) or (R)-[6-methyl-5-(propan-2-yl)pyridin-2-yl](phenyl)methyl] pyrrolidine-2-carboxamide], for which the IC50 in assay [1] is above 100000 nM; in assay [2], 225 nM; in assay [3] (Homo sapiens, HeLa, 24 h), 1650 nM.
`CC(C)(C)c1ccc(C(NC(=O)[C@@H]2C[C@@H](F)CN2C(=O)Cc2cnn[nH]2)c2ccccc2)nc1` (single isomer, unassigned) [Compound 611, (2S,4R)-N-[(S) or (R)-(5-tert-butylpyridin-2-yl)(phenyl)methyl]-4-fluoro-1-[2-(1H-1,2,3-triazol-5-yl)acetyl]pyrrolidine-2-carboxamide]: the IC50 was above 100000 nM in assay [1]; 547 nM in assay [2]; 5320 nM in assay [3] (Homo sapiens, HeLa, 24 h).
Consider `CC(C)c1ccc(C(NC(=O)[C@@H]2C[C@@H](F)CN2C(=O)Cc2cnn[nH]2)c2ccn[nH]2)cc1F` (single isomer, unassigned) [Compound 623, (2S,4R)-4-fluoro-N-[(R) or (S)-[3-fluoro-4-(propan-2-yl)phenyl](1H-pyrazol-5-yl)methyl]-1-[2-(1H-1,2,3-triazol-5-yl)acetyl]pyrrolidine-2-carboxamide], for which the IC50 in assay [1] is above 100000 nM; in assay [2], 111 nM; in assay [3] (Homo sapiens, HeLa, 24 h), 4070 nM.
For `Cc1cc(C(NC(=O)[C@@H]2C[C@@H](F)CN2C(=O)Cc2c(C)nn(C)c2C)c2cccnc2N)ccc1C(C)C` (single isomer, unassigned) [Compound 625, (2S,4R)-N-[(R) or (S)-(2-aminopyridin-3-yl)[3-methyl-4-(propan-2-yl)phenyl]methyl]-4-fluoro-1-[2-(1,3,5-trimethyl-1H-pyrazol-4-yl)acetyl]pyrrolidine-2-carboxamide], the IC50 in assay [1] was above 100000 nM; in assay [2], 139 nM; in assay [3] (Homo sapiens, HeLa, 24 h), 1140 nM.
Take `CC(C)c1ccc(C(NC(=O)[C@@H]2C[C@@H](F)CN2C(=O)Cc2ncco2)c2ccn[nH]2)nc1F` (single isomer, unassigned) [Compound 630, (2S,4R)-4-fluoro-N-[(S) or (R)-[6-fluoro-5-(propan-2-yl)pyridin-2-yl](1H-pyrazol-5-yl)methyl]-1-[2-(1,3-oxazol-2-yl)acetyl]pyrrolidine-2-carboxamide]: the IC50 was above 100000 nM in assay [1]; 92 nM in assay [2]; 2130 nM in assay [3] (Homo sapiens, HeLa, 24 h).
With `CC(C)c1ccc(C(NC(=O)[C@@H]2C[C@@H](F)CN2C(=O)Cc2cnn[nH]2)c2ccn3cncc3c2)nc1F` (single isomer, unassigned) [Compound 631, (2S,4R)-4-fluoro-N-[(S) or (R)-[6-fluoro-5-(propan-2-yl)pyridin-2-yl]({imidazo[1,5-a]pyridin-7-yl})methyl]-1-[2-(1H-1,2,3-triazol-5-yl)acetyl]pyrrolidine-2-carboxamide], the IC50 was above 100000 nM in assay [1]; 176 nM in assay [2]; 13600 nM in assay [3] (Homo sapiens, HeLa, 24 h).
As for `CC(C)c1ccc(C(NC(=O)[C@@H]2C[C@@H](F)CN2C(=O)Cc2cnn[nH]2)c2ccc3cn[nH]c3c2)nc1F` (single isomer, unassigned) [Compound 632, (2S,4R)-4-fluoro-N-[(S) or (R)-[6-fluoro-5-(propan-2-yl)pyridin-2-yl](1H-indazol-6-yl)methyl]-1-[2-(1H-1,2,3-triazol-5-yl)acetyl]pyrrolidine-2-carboxamide], the figures for the IC50 in assay [1], in assay [2] and in assay [3] were above 100000 nM, 13 nM and 660 nM, respectively.
Consider `COc1cccc(C(NC(=O)[C@@H]2C[C@@H](F)CN2C(=O)Cc2cnn[nH]2)c2ccc(C(C)C)c(F)n2)c1` (single isomer, unassigned) [Compound 651, (2S,4R)-4-fluoro-N-[(S) or (R)-[6-fluoro-5-(propan-2-yl)pyridin-2-yl](3-methoxyphenyl)methyl]-1-[2-(1H-1,2,3-triazol-5-yl)acetyl]pyrrolidine-2-carboxamide], for which the IC50 in assay [1] is above 100000 nM; in assay [2], 77 nM; in assay [3] (Homo sapiens, HeLa, 24 h), 1570 nM.
`CC(C)c1ccc(C(CC2CC2)NC(=O)[C@@H]2C[C@@H](F)CN2C(=O)Cc2cnn[nH]2)cc1F` (single isomer, unassigned) [Compound 653, (2S,4R)-N-[(1S) or (1R)-2-cyclopropyl-1-[3-fluoro-4-(propan-2-yl)phenyl]ethyl]-4-fluoro-1-[2-(1H-1,2,3-triazol-5-yl)acetyl]pyrrolidine-2-carboxamide]: the IC50 was above 100000 nM in assay [1]; 262 nM in assay [2]; 3750 nM in assay [3] (Homo sapiens, HeLa, 24 h).
Regarding `CC(C)c1c(F)cc(C(NC(=O)[C@@H]2C[C@@H](F)CN2C(=O)Cc2cnn[nH]2)c2ccccc2)cc1F` (single isomer, unassigned) [Compound 667, (2S,4R)-N-[(S) or (R)-[3,5-difluoro-4-(propan-2-yl)phenyl](phenyl)methyl]-4-fluoro-1-[2-(1H-1,2,3-triazol-5-yl)acetyl]pyrrolidine-2-carboxamide], the IC50 was above 100000 nM in assay [1]; 23 nM in assay [2]; 290 nM in assay [3] (Homo sapiens, HeLa, 24 h).
For `CC(C)c1c(F)cc(C(NC(=O)[C@@H]2C[C@@H](F)CN2C(=O)Cn2ccnn2)c2ccccc2)cc1F` (single isomer, unassigned) [Compound 668, (2S,4R)-N-[(S) or (R)-[3,5-difluoro-4-(propan-2-yl)phenyl](phenyl)methyl]-4-fluoro-1-[2-(1H-1,2,3-triazol-1-yl)acetyl]pyrrolidine-2-carboxamide], the IC50 in assay [1] was above 100000 nM; in assay [2], 25 nM; in assay [3] (Homo sapiens, HeLa, 24 h) it was 320 nM.
On the same counts, the results for `O=C(NC(c1ccccc1)c1ccc(C2CCC2)c(F)c1)[C@@H]1C[C@@H](F)CN1C(=O)Cc1cnn[nH]1` (single isomer, unassigned) [Compound 674, (2S,4R)-N-[(S) or (R)-(4-cyclobutyl-3-fluorophenyl) (phenyl)methyl]-4-fluoro-1-[2-(1H-1,2,3-triazol-5-yl)acetyl]pyrrolidine-2-carboxamide] are above 100000 nM, 96 nM and 710 nM.
For `O=C(NC(c1ccccc1)c1ccc(C2CCC2)c(F)c1)[C@@H]1C[C@@H](F)CN1C(=O)Cn1cnnn1` (single isomer, unassigned) [Compound 675, (2S,4R)-N-[(S) or (R)-(4-cyclobutyl-3-fluorophenyl) (phenyl)methyl]-4-fluoro-1-[2-(1H-1,2,3,4-tetrazol-1-yl)acetyl]pyrrolidine-2-carboxamide] the same measures were above 100000 nM, 101 nM and 1130 nM.
For `CCC(C)c1ccc(C(NC(=O)[C@@H]2C[C@@H](F)CN2C(=O)Cc2cnn[nH]2)c2ccccc2)cc1F` (single isomer, unassigned) [Compound 676, (2S,4R)-N-[(R) or (S)-{4-[(2R) or (2S)-butan-2-yl]-3-fluorophenyl}(phenyl)methyl]-4-fluoro-1-[2-(1H-1,2,3-triazol-5-yl)acetyl]pyrrolidine-2-carboxamide], the IC50 is above 100000 nM in assay [1], 554 nM in assay [2] and 14000 nM in assay [3].
